From ChEMBL document CHEMBL1201862, “PubChem BioAssay data set” (2004)
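Five concentrations, 48 hours, 96-well plates. At the GI50, growth is halved.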 Activity calls are given as the source filed them. No stated cut-off is given here; in the data, active = GI50 up to about 1.1 µM and inactive = higher.

Tests used:
Assay in all cases: NCI anticancer screen, dose series, 48 h
NCI-H522 = test system: NCI-H522
NCI-H226 = test system: NCI-H226
MCF7 = test system: MCF7
OVCAR-4 = test system: OVCAR-4
KM12 = test system: KM12
A498 = test system: A498
OVCAR-8 = test system: OVCAR-8
RXF 393 = test system: RXF 393
PC-3 = test system: PC-3
U-251 = test system: U-251
CCRF-CEM = test system: CCRF-CEM
RPMI-8226 = test system: RPMI-8226
HOP-92 = test system: HOP-92
IGROV-1 = test system: IGROV-1
ACHN = test system: ACHN
COLO 205 = test system: COLO 205
NCI-H23 = test system: NCI-H23
SK-OV-3 = test system: SK-OV-3
SW-620 = test system: SW-620

Measured: GI50

O=C(O)CCSc1ncnc2[nH]cnc12
inactive: NCI-H522 > 100 µM | NCI-H226 64.7 µM | MCF7 > 100 µM | OVCAR-4 > 100 µM | KM12 > 100 µM | A498 > 100 µM | OVCAR-8 > 100 µM | RXF 393 > 100 µM | PC-3 > 100 µM | U-251 > 100 µM | CCRF-CEM > 100 µM | RPMI-8226 > 100 µM | HOP-92 27.1 µM | IGROV-1 > 100 µM | ACHN > 100 µM | COLO 205 > 100 µM | NCI-H23 > 100 µM | SK-OV-3 > 100 µM | SW-620 > 100 µM

Clc1nc2n(c1/C=C/c1cccs1)CCS2
inactive: NCI-H522 35.1 µM | NCI-H226 31.6 µM | MCF7 30.8 µM | OVCAR-4 64 µM | KM12 37.7 µM | A498 20 µM | OVCAR-8 29.7 µM | RXF 393 40.8 µM | PC-3 40.8 µM | U-251 28.1 µM | CCRF-CEM 10.9 µM | RPMI-8226 15.7 µM | IGROV-1 32 µM | ACHN 37.5 µM | COLO 205 37.8 µM | NCI-H23 29 µM | SK-OV-3 30.7 µM | SW-620 26.9 µM

CC(C)[C@H]1NC(=O)[C@H]2N=C(O[C@@H]2C)[C@@H]2CCCN2C(=O)[C@H](Cc2ccccc2)NC(=O)[C@@H]2COC(=N2)[C@@H](Cc2ccccc2)NC(=O)[C@@H]2COC1=N2
inactive: NCI-H522 > 100 µM | NCI-H226 > 100 µM | MCF7 > 100 µM | OVCAR-4 > 100 µM | KM12 > 100 µM | OVCAR-8 > 100 µM | RXF 393 > 100 µM | PC-3 > 100 µM | U-251 > 100 µM | CCRF-CEM > 100 µM | RPMI-8226 > 100 µM | IGROV-1 > 100 µM | ACHN > 100 µM | COLO 205 > 100 µM | NCI-H23 > 100 µM | SK-OV-3 > 100 µM | SW-620 > 100 µM

O=C(O)c1ccc(N/C(=C(/C(Cl)=C(Cl)Cl)[N+](=O)[O-])n2nnc3ccccc32)cc1
inactive: NCI-H226 > 100 µM | MCF7 > 100 µM | OVCAR-4 > 100 µM | KM12 > 100 µM | A498 > 100 µM | OVCAR-8 > 100 µM | PC-3 > 100 µM | U-251 > 100 µM | CCRF-CEM > 100 µM | RPMI-8226 > 100 µM | ACHN > 100 µM | COLO 205 > 100 µM | NCI-H23 > 100 µM | SK-OV-3 > 100 µM | SW-620 > 100 µM

CC1(C)CC(=O)C(CCC(=O)/C=C/c2ccccc2)C(=O)C1
inactive: NCI-H522 > 100 µM | NCI-H226 > 100 µM | MCF7 > 100 µM | OVCAR-4 > 100 µM | KM12 > 100 µM | A498 > 100 µM | OVCAR-8 > 100 µM | RXF 393 > 95.3 µM | PC-3 > 100 µM | U-251 > 100 µM | CCRF-CEM > 34.9 µM | RPMI-8226 > 100 µM | HOP-92 > 89.3 µM | IGROV-1 > 100 µM | ACHN 98.9 µM | COLO 205 > 100 µM | NCI-H23 > 100 µM | SK-OV-3 > 100 µM | SW-620 > 100 µM

CC[C@@H]1CN2CCC1C[C@@H]2C(O)c1ccnc2ccc(OCCN3CCN(CCOc4ccc5nccc(C(O)[C@@H]6C[C@@H]7CCN6C[C@@H]7CC)c5c4)CC3)cc12 (some centres undefined)
inactive: NCI-H522 12 µM | MCF7 15.5 µM | OVCAR-4 19.8 µM | KM12 16.1 µM | A498 20.2 µM | OVCAR-8 19.3 µM | RXF 393 16.5 µM | PC-3 15.9 µM | U-251 16.7 µM | CCRF-CEM 4.45 µM | RPMI-8226 2.59 µM | HOP-92 8.81 µM | IGROV-1 13.9 µM | ACHN 15.1 µM | COLO 205 14.7 µM | NCI-H23 20.7 µM | SK-OV-3 18.3 µM | SW-620 21.8 µM

O=S1(=O)c2ccccc2Oc2ccc(C(/C=N/O)=N/O)cc21
inactive: NCI-H522 12.1 µM | NCI-H226 57.4 µM | MCF7 26.5 µM | OVCAR-4 39.1 µM | KM12 22 µM | OVCAR-8 18.4 µM | RXF 393 15.5 µM | PC-3 32.5 µM | U-251 41.2 µM | CCRF-CEM 25.8 µM | RPMI-8226 19.1 µM | HOP-92 45.2 µM | IGROV-1 29.2 µM | ACHN 38.6 µM | COLO 205 > 100 µM | SK-OV-3 39.6 µM

O=[N+]([O-])C(=C1NCCN1)/C(Cl)=C(/Cl)N1CCOCC1
inactive: NCI-H226 > 100 µM | MCF7 > 100 µM | OVCAR-4 > 100 µM | KM12 > 100 µM | A498 > 100 µM | OVCAR-8 > 100 µM | PC-3 > 100 µM | U-251 > 100 µM | CCRF-CEM > 100 µM | RPMI-8226 > 100 µM | ACHN > 100 µM | COLO 205 > 100 µM | NCI-H23 > 100 µM | SK-OV-3 > 100 µM | SW-620 > 100 µM

COc1ccc(N2C(=O)CC(Cl)C2=O)cc1 (centres undefined)
inactive: NCI-H522 17.5 µM | NCI-H226 20.5 µM | MCF7 60.1 µM | OVCAR-4 19.1 µM | A498 > 100 µM | OVCAR-8 16.6 µM | RXF 393 20 µM | PC-3 52.2 µM | U-251 > 100 µM | RPMI-8226 13.5 µM | HOP-92 27.5 µM | IGROV-1 > 100 µM | ACHN 17.9 µM | COLO 205 16.4 µM | NCI-H23 23.3 µM | SK-OV-3 > 100 µM | SW-620 18.7 µM

CCOP(=O)(Nc1ccc(-c2ccc(N)cc2)cc1)OCC
inactive: NCI-H522 > 100 µM | MCF7 > 100 µM | OVCAR-4 > 100 µM | KM12 > 100 µM | A498 > 100 µM | OVCAR-8 > 100 µM | RXF 393 35.2 µM | PC-3 > 100 µM | U-251 > 100 µM | RPMI-8226 > 100 µM | HOP-92 > 100 µM | IGROV-1 > 100 µM | ACHN > 100 µM | COLO 205 > 100 µM | NCI-H23 > 100 µM | SK-OV-3 > 100 µM

COc1ccc2c(n1)Sc1nc3ccccc3nc1N2
inactive: NCI-H522 78 µM | NCI-H226 10.7 µM | MCF7 65.2 µM | OVCAR-4 67.3 µM | KM12 55.7 µM | A498 > 100 µM | OVCAR-8 16.2 µM | RXF 393 32.2 µM | PC-3 89.5 µM | U-251 19.4 µM | CCRF-CEM 29.4 µM | RPMI-8226 > 100 µM | HOP-92 78.5 µM | IGROV-1 5.92 µM | ACHN 23.2 µM | COLO 205 > 100 µM | NCI-H23 17.9 µM | SK-OV-3 37.2 µM | SW-620 > 100 µM
